In patent US9789101B2, “Methods and compositions for treating microbial infection using pyrroloquinone” (HELPERBY THERAPEUTICS LIMITED, priority 2010, dated 2017):

Key:
[1] = system: Mupirocin Resistant S. aureus (28 Passages); assay: Chequerboard analysis of HT00800059 and mupirocin against mupirocin resistant S. aureus (28 passages); type: cell-based, Staphylococcus aureus; conditions: for optical density reading at 405 nm: HT00800059 μg/ml: 1024,512,256,128,64,32,16,0, 24 hours
Protocol: (§1) Staphylococcus aureus (Oxford); Gram positive; Reference strain.
(§2) Log phase growth of mupirocin resistant Staphylococcus aureus (MSSA) was carried out as follows: • Bacteria were grown in 10 ml of nutrient broth (No. 2, (Oxoid)) overnight at 37° C. with continuous shaking at 120 rpm. The overnight cultures were diluted 1000× with iso-sensitest broth. The cultures were incubated at 37° C. with shaking for 1-2 hours to reach log CFU 6. Viability of the bacteria was estimated by colony forming unit (CFU) counts. From serial 10-fold dilutions of the experimental cultures, 100 μl samples were added to triplicate plates of nutrient agar plates (Oxoid) or blood agar plates (Oxoid). CFUs were counted after incubation of the plates at 37° C. for 24 hours.
(§3) Bacterial cultures: 10 μl of overnight cultures was added to 10 ml of fresh iso-sensitest broth to make the inoculation to 10^6 CFU/ml. 290 μl of the cell suspension was added to each well of the 96 well plate, which was incubated at 37° C. for 24 hours. 300 μl of iso-sensitest broth without bacterial cells were added to wells of the plate as a no bacterial control.
(§4) MIC determination: The optical density of the bacterial cells was read at 405 nm using a plate reader (Bio TEK). The MIC concentration was determined as the lowest concentration of drug which inhibits the bacterial growth.
(§5) Mupirocin was dissolved in DMSO to the stock concentration of 10 mg/ml. HT00800059 was dissolved in H2O to the stock solution 30.07 mg/ml.
(§6) Mupirocin (10 mg/ml) was firstly diluted to 3.84 mg/ml, then further diluted in a serial of 2 fold dilutions. HT00800059 (30.7 mg/ml) was performed in a serial of 2 fold dilutions.
(§7) This was followed by the addition of 280 μl of log phase culture at 10^6 CFU/ml to make the final concentrations of each drug as shown in Table 1 and Table 2.
(§8) In the above table, values in bold text are for HT00800059. Values in plain text are for mupirocin. The numbers shown in each well are μg/ml.
(§9) Incubation of the compounds with the bacterial suspension was carried out for 24 hours. The kill effects of the drug combination were measured by optical density reading at 405 nm with a plate reader (Bio TEK).
(§10) The fractional inhibitory concentration (FIC) index was carried out as following: (MIC of drug A, tested in combination)/(MIC of drug A, tested alone)+(MIC of drug B, tested in combination)/(MIC of drug B, tested alone). The interaction was defined as synergistic if the FIC index was <1, additive if the FIC index was =1 and antagonistic if the FIC index was >1.

[2] = system: Mupirocin Resistant S. aureus (24 Passages); assay: Chequerboard analysis of HT00800059 and mupirocin against mupirocin resistant S. aureus (24 passages); type: cell-based, Staphylococcus aureus; conditions: for optical density reading at 405 nm: HT00800059 μg/ml: 1024,512,256,128,64,32,16,0, 24 hours
Protocol: as §1, §2, §3, §4, §5, §6, §7, §8, §9, §10

[3] = system: log phase Staphylococcus aureus; assay: Chequerboard analysis of HT00800059 and mupirocin against log phase Staphylococcus aureus; type: cell-based, Staphylococcus aureus (Oxford)
Protocol: Staphylococcus aureus (Oxford); Gram positive; Reference strain. Log phase growth of […] sensitive Staphylococcus aureus (MSSA) was carried out as follows: • Bacteria were grown in 10 ml of nutrient broth (No. 2, (Oxoid)) overnight at 37° C. with continuous shaking at 120 rpm. […] The cultures were incubated at 37° C. with shaking for 1-2 hours to reach log CFU 6. Viability of the bacteria was estimated by colony forming unit (CFU) counts. From serial 10-fold dilutions of the experimental cultures, 100 μl samples were added to triplicate plates of nutrient agar plates (Oxoid) or blood agar plates (Oxoid). CFUs were counted after incubation of the plates at 37° C. for 24 hours. […] 290 μl of the cell suspension was added to each well of the 96 well plate, which was incubated at 37° C. for 24 hours. […] MIC determination: The optical density of the bacterial cells was read at 405 nm using a plate reader (Bio TEK). The MIC concentration was determined as the lowest concentration of drug which inhibits the bacterial growth. […] HT00800059 was dissolved in H2O to the stock solution 30.07 mg/ml. […] HT00800059 (30.7 mg/ml) was performed in a serial of 2 fold dilutions. This was followed by the addition of 280 μl of log phase culture at 10^6 CFU/ml to make the final concentrations of each drug as shown. In the above table, values in bold text are for HT00800059. Values in plain text are for mupirocin. The numbers shown in each well are μg/ml. Incubation of the compounds with the bacterial suspension was carried out for 24 hours. The kill effects of the drug combination were measured by optical density reading at 405 nm with a plate reader (Bio TEK). The fractional inhibitory concentration (FIC) index was carried out as following: (MIC of drug A, tested in combination)/(MIC of drug A, tested alone)+(MIC of drug B, tested in combination)/(MIC of drug B, tested alone). The interaction was defined as synergistic if the FIC index was <1, additive if the FIC index was =1 and antagonistic if the FIC index was >1.

[4] = Staphylococcus aureus, read-out: alone MIC

Compound: C/C(=C\C(=O)OCCCCCCCCC(=O)O)C[C@@H]1OC[C@H](C[C@@H]2O[C@H]2[C@@H](C)[C@H](C)O)[C@@H](O)[C@H]1O [Mupirocin]
- optical density reading at 405 nm ([1]; 28 passages, mupirocin 0.125 μg/ml): 1.255
- optical density reading at 405 nm ([1]; 28 passages, mupirocin 0.25 μg/ml): 1.246
- optical density reading at 405 nm ([1]; 28 passages, mupirocin 0.5 μg/ml): 1.252
- optical density reading at 405 nm ([1]; 28 passages, mupirocin 1 μg/ml): 1.244
- optical density reading at 405 nm ([1]; 28 passages, mupirocin 2 μg/ml): 1.208
- optical density reading at 405 nm ([1]; 28 passages, mupirocin 4 μg/ml): 1.136
- optical density reading at 405 nm ([1]; 28 passages, mupirocin 8 μg/ml): 0.968
- optical density reading at 405 nm ([1]; 28 passages, mupirocin 16 μg/ml): 0.726
- optical density reading at 405 nm ([1]; 28 passages, mupirocin 32 μg/ml): 0.480
- optical density reading at 405 nm ([1]; 28 passages, mupirocin 64 μg/ml): 0.363
- optical density reading at 405 nm ([1]; 28 passages, mupirocin 128 μg/ml): 0.346
- MIC [1, 4]: 64 µg/mL
- MIC before combination ([1]; resistant strain 28 passages): 64 µg/mL
- MIC post combination ([1]; resistant strain 28 passages): 4 µg/mL
- mupirocin MIC in combination ([1]; with HT00800059 at 256 μg/ml, 28 passages): 4 µg/mL
- optical density reading at 405 nm ([2]; 24 passages, mupirocin 0.125 μg/ml): 1.170
- optical density reading at 405 nm ([2]; 24 passages, mupirocin 0.25 μg/ml): 1.083
- optical density reading at 405 nm ([2]; 24 passages, mupirocin 0.5 μg/ml): 1.109
- optical density reading at 405 nm ([2]; 24 passages, mupirocin 1 μg/ml): 1.056
- optical density reading at 405 nm ([2]; 24 passages, mupirocin 2 μg/ml): 0.863
- optical density reading at 405 nm ([2]; 24 passages, mupirocin 4 μg/ml): 0.629
- optical density reading at 405 nm ([2]; 24 passages, mupirocin 8 μg/ml): 0.454
- optical density reading at 405 nm ([2]; 24 passages, mupirocin 16 μg/ml): 0.386
- optical density reading at 405 nm ([2]; 24 passages, mupirocin 21 μg/ml): 0.359
- optical density reading at 405 nm ([2]; 24 passages, mupirocin 64 μg/ml): 0.356
- optical density reading at 405 nm ([2]; 24 passages, mupirocin 128 μg/ml): 0.358
- MIC [2, 4]: 16 µg/mL
- MIC before combination ([2]; resistant strain 24 passages): 16 µg/mL
- MIC post combination ([2]; resistant strain 24 passages): 1 µg/mL
- mupirocin MIC in combination ([2]; with HT00800059 at 256 μg/ml, 24 passages): 1 µg/mL
- MIC ([3]; Staphylococcus aureus, summary list, read-out: alone MIC): 0.25 µg/mL
- MIC before combination ([3]; iso-sensitest broth): 0.25 µg/mL
- MIC post combination ([3]; iso-sensitest broth): 0.0625 µg/mL
- MIC before combination ([3]; nutrient broth): 0.25 µg/mL
- MIC post combination ([3]; nutrient broth): 0.0625 µg/mL
- mupirocin MIC in combination ([3]; with HT00800059 at 256 μg/ml): 0.0625 µg/mL
